Assays:
[1] = system: wheat; assay: Test C postemergence; assay type: in vivo, Triticum aestivum; settings: for Plant response rating, Wheat / Wheat plant response rating: postemergence; for Plant response rating, Wheat: 250 g ai/ha, scale 0 to 100 (0 no effect, 100 complete control); for Wheat plant response rating: scale 0 to 100
Outline: (§1)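 Seeds sown in loam–sand blend and treated preemergence with test chemicals in non-phytotoxic solvent with surfactant; postemergence plants in peat-based medium, treated at 2–18 cm (1- to 4-leaf stage). Greenhouse 13 to 15 days, then visual rating versus controls, 0 (no effect) to 100 (complete control).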

[2] = system: corn; assay: Test C postemergence; assay type: in vivo, Zea mays; settings: for Plant response rating (scale of 0 to 100 where 0 is no effect and 100 is complete control), Corn: Postemergence, 31 g ai/ha, visually evaluated after 13 to 15 days; for Corn plant response rating / Plant response rating, Corn: postemergence; for Corn plant response rating: 62 g ai/ha, scale 0 to 100
Outline: as §1

[3] = system: wheat; assay: Test C preemergence; assay type: in vivo, Triticum aestivum; settings: preemergence; for Plant response rating, Wheat: 125 g ai/ha, scale 0 to 100, 0 = no effect, 100 = complete control
Outline: as §1

[4] = system: lambsquarters; assay: Test C preemergence; assay type: in vivo, Chenopodium album; settings: preemergence; for Plant response rating, Lambsquarters: 125 g ai/ha, scale 0 to 100, 0 = no effect, 100 = complete control
Outline: as §1

[5] = system: crabgrass, large; assay: Test A postemergence; assay type: in vivo, Digitaria sanguinalis
Outline: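 After sowing in a sand–loam mix, pots received compound preemergence by directed soil spray, or postemergence once plants reached the one- to two-leaf stage (2–10 cm). Formulation contained surfactant in a non-phytotoxic solvent. Injury was scored visually after ~10 greenhouse days, 0–100 scale.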

[6] = system: foxtail, giant; assay: Test C postemergence; assay type: in vivo, Setaria faberii; settings: for Plant response rating (scale of 0 to 100 where 0 is no effect and 100 is complete control), Foxtail, Giant: Postemergence, 31 g ai/ha, visually evaluated after 13 to 15 days; for Foxtail, Giant plant response rating / Plant response rating, Foxtail, Giant: postemergence; for Foxtail, Giant plant response rating: 62 g ai/ha, scale 0 to 100
Outline: as §1

[7] = system: lambsquarters; assay: Test C postemergence; assay type: in vivo, Chenopodium album; settings: for Plant response rating (scale of 0 to 100 where 0 is no effect and 100 is complete control), Lambsquarters: Postemergence, 31 g ai/ha, visually evaluated after 13 to 15 days; for Lambsquarters plant response rating / Plant response rating, Lambsquarters: postemergence; for Lambsquarters plant response rating: 62 g ai/ha, scale 0 to 100
Outline: as §1

[8] = system: barnyardgrass; assay: Test C postemergence; assay type: in vivo, Echinochloa crus-galli; settings: for Plant response rating (scale of 0 to 100 where 0 is no effect and 100 is complete control), Barnyardgrass: Postemergence, 31 g ai/ha, visually evaluated after 13 to 15 days; for Barnyardgrass plant response rating / Plant response rating, Barnyardgrass: postemergence; for Barnyardgrass plant response rating: 62 g ai/ha, scale 0 to 100
Outline: as §1

[9] = system: velvetleaf; assay: Test C preemergence; assay type: in vivo, Abutilon theophrasti; settings: preemergence; for Plant response rating, Velvetleaf: 125 g ai/ha, scale 0 to 100, 0 = no effect, 100 = complete control
Outline: as §1

[10] = system: chickweed; assay: Test C postemergence; assay type: in vivo, Stellaria media; settings: for Plant response rating (scale of 0 to 100 where 0 is no effect and 100 is complete control), Chickweed: Postemergence, 31 g ai/ha, visually evaluated after 13 to 15 days; for Chickweed plant response rating / Plant response rating, Chickweed: postemergence; for Chickweed plant response rating: 62 g ai/ha, scale 0 to 100
Outline: as §1

[11] = system: barnyardgrass; assay: Test B flood; assay type: in vivo, Echinochloa crus-galli; settings: 250 g ai/ha, visual rating on 0 to 100 scale (0 no effect, 100 complete control), 13 to 15 days
Outline: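 Visual ratings on a 0–100 scale, where 0 means no effect and 100 means complete control, were assigned by comparison with controls 13 to 15 days after treatment. Compounds went into paddy water over 2-leaf plants flooded to 3 cm.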

[12] = system: kochia; assay: Test C postemergence; assay type: in vivo, Kochia scoparia; settings: for Plant response rating (scale of 0 to 100 where 0 is no effect and 100 is complete control), Kochia: Postemergence, 31 g ai/ha, visually evaluated after 13 to 15 days; for Kochia plant response rating / Plant response rating, Kochia: postemergence; for Kochia plant response rating: 62 g ai/ha, scale 0 to 100
Outline: as §1

[13] = system: morningglory; assay: Test C postemergence; assay type: in vivo, Ipomoea coccinea; settings: for Plant response rating (scale of 0 to 100 where 0 is no effect and 100 is complete control), Morningglory: Postemergence, 31 g ai/ha, visually evaluated after 13 to 15 days; for Morningglory plant response rating / Plant response rating, Morningglory: postemergence; for Morningglory plant response rating: 62 g ai/ha, scale 0 to 100
Outline: as §1

[14] = 250 g ai/ha, scale 0 to 100 (0 no effect, 100 complete control)
[15] = 125 g ai/ha, scale 0 to 100, 0 no effect, 100 complete control
[16] = 31 g ai/ha, visual rating, scale 0 to 100 (0 no effect, 100 complete control), 13 to 15 days
[17] = 62 g ai/ha, scale 0 to 100 (0 no effect, 100 complete control), 13 to 15 days
[18] = 250 g ai/ha, scale 0 to 100, 0 is no effect, 100 is complete control
[19] = Postemergence, 500 g ai/ha, 0 to 100 scale (0 no effect, 100 complete control)
[20] = postemergence, 125 g ai/ha, about 10 days, visual rating on 0 to 100 scale (0 no effect, 100 complete control)

## O=C(NC1CC1)c1cc(CCCl)n(Cc2ccnc(C(F)(F)F)c2)n1 [Compound 144]
[1]; Postemergence, 31 g ai/ha, visually evaluated after 13 to 15 days
  Plant response rating (scale of 0 to 100 where 0 is no effect and 100 is complete control), Wheat: 5
[1]
  Plant response rating, Wheat: 10
  Wheat plant response rating: 10
[2]
  Plant response rating (scale of 0 to 100 where 0 is no effect and 100 is complete control), Corn: 5
  Corn plant response rating: 10
[2]; [14]
  Plant response rating, Corn: 25
[2]; [15]
  Plant response rating, Corn: 15
[3]; [16]
  Wheat plant response rating: 5
[3]; [17]
  Wheat plant response rating: 40
[3]; 13 to 15 days
  Plant response rating, Wheat: 80
[3]; [18]
  Wheat plant response rating: 90
[4]; [16]
  Lambsquarters plant response rating: 95
[4]; [17]
  Lambsquarters plant response rating: 98
[4]; 13 to 15 days
  Plant response rating, Lambsquarters: 98
[4]; [18]
  Lambsquarters plant response rating: 98
[5]; [19]
  Crabgrass, Large plant response rating: 90
[5]; [20]
  Crabgrass, Large plant response rating: 90
[6]
  Plant response rating (scale of 0 to 100 where 0 is no effect and 100 is complete control), Foxtail, Giant: 5
  Foxtail, Giant plant response rating: 10
[6]; [14]
  Plant response rating, Foxtail, Giant: 25
[6]; [15]
  Plant response rating, Foxtail, Giant: 15
[7]
  Plant response rating (scale of 0 to 100 where 0 is no effect and 100 is complete control), Lambsquarters: 60
  Lambsquarters plant response rating: 60
[7]; [14]
  Plant response rating, Lambsquarters: 95
[7]; [15]
  Plant response rating, Lambsquarters: 70
[8]
  Plant response rating (scale of 0 to 100 where 0 is no effect and 100 is complete control), Barnyardgrass: 10
  Barnyardgrass plant response rating: 15
[8]; [14]
  Plant response rating, Barnyardgrass: 15
[8]; [15]
  Plant response rating, Barnyardgrass: 10
[9]; [16]
  Velvetleaf plant response rating: 15
[9]; [17]
  Velvetleaf plant response rating: 75
[9]; 13 to 15 days
  Plant response rating, Velvetleaf: 100
[9]; [18]
  Velvetleaf plant response rating: 100
[10]
  Plant response rating (scale of 0 to 100 where 0 is no effect and 100 is complete control), Chickweed: 70
  Chickweed plant response rating: 65
[10]; [14]
  Plant response rating, Chickweed: 90
[10]; [15]
  Plant response rating, Chickweed: 80
[11]
  Plant response rating, Barnyardgrass: 30
[12]
  Plant response rating (scale of 0 to 100 where 0 is no effect and 100 is complete control), Kochia: 75
  Kochia plant response rating: 85
[12]; [14]
  Plant response rating, Kochia: 95
[12]; [15]
  Plant response rating, Kochia: 95
[13]
  Plant response rating (scale of 0 to 100 where 0 is no effect and 100 is complete control), Morningglory: 35
  Morningglory plant response rating: 40
[13]; [14]
  Plant response rating, Morningglory: 98
[13]; [15]
  Plant response rating, Morningglory: 85

## CCCc1cc(C(=O)NC(C)C)nn1Cc1ccnc(C(F)(F)F)c1 [Compound 186]
[1]
  Plant response rating, Wheat: 20
  Wheat plant response rating: 15
[2]
  Plant response rating (scale of 0 to 100 where 0 is no effect and 100 is complete control), Corn: 5
  Corn plant response rating: 40
[2]; [14]
  Plant response rating, Corn: 65
[2]; [15]
  Plant response rating, Corn: 75
[3]; [16]
  Wheat plant response rating: 80
[3]; [17]
  Wheat plant response rating: 90
[3]; 13 to 15 days
  Plant response rating, Wheat: 90
[3]; [18]
  Wheat plant response rating: 90
[4]; [16]
  Lambsquarters plant response rating: 100
[4]; [17]
  Lambsquarters plant response rating: 100
[4]; 13 to 15 days
  Plant response rating, Lambsquarters: 100
[4]; [18]
  Lambsquarters plant response rating: 100
[5]; [19]
  Crabgrass, Large plant response rating: 90
[5]; [20]
  Crabgrass, Large plant response rating: 90
[6]
  Plant response rating (scale of 0 to 100 where 0 is no effect and 100 is complete control), Foxtail, Giant: 5
  Foxtail, Giant plant response rating: 30
[6]; [14]
  Plant response rating, Foxtail, Giant: 75
[6]; [15]
  Plant response rating, Foxtail, Giant: 60
[7]
  Plant response rating (scale of 0 to 100 where 0 is no effect and 100 is complete control), Lambsquarters: 95
  Lambsquarters plant response rating: 65
[7]; [14]
  Plant response rating, Lambsquarters: 98
[7]; [15]
  Plant response rating, Lambsquarters: 75
[8]
  Plant response rating (scale of 0 to 100 where 0 is no effect and 100 is complete control), Barnyardgrass: 5
  Barnyardgrass plant response rating: 10
[8]; [14]
  Plant response rating, Barnyardgrass: 55
[8]; [15]
  Plant response rating, Barnyardgrass: 10
[9]; [16]
  Velvetleaf plant response rating: 100
[9]; [17]
  Velvetleaf plant response rating: 100
[9]; 13 to 15 days
  Plant response rating, Velvetleaf: 100
[9]; [18]
  Velvetleaf plant response rating: 100
[10]
  Plant response rating (scale of 0 to 100 where 0 is no effect and 100 is complete control), Chickweed: 70
  Chickweed plant response rating: 80
[10]; [14]
  Plant response rating, Chickweed: 100
[10]; [15]
  Plant response rating, Chickweed: 85
[11]
  Plant response rating, Barnyardgrass: 75
[12]
  Plant response rating (scale of 0 to 100 where 0 is no effect and 100 is complete control), Kochia: 80
  Kochia plant response rating: 85
[12]; [14]
  Plant response rating, Kochia: 95
[12]; [15]
  Plant response rating, Kochia: 90
[13]
  Plant response rating (scale of 0 to 100 where 0 is no effect and 100 is complete control), Morningglory: 85
  Morningglory plant response rating: 85
[13]; [14]
  Plant response rating, Morningglory: 75
[13]; [15]
  Plant response rating, Morningglory: 75

## CCOc1cc(C(=O)NOC(C)C)nn1Cc1ccnc(C(F)(F)F)c1 [Compound 153]
[1]
  Plant response rating, Wheat: 15
  Wheat plant response rating: 0
[2]
  Plant response rating (scale of 0 to 100 where 0 is no effect and 100 is complete control), Corn: 5
  Corn plant response rating: 10
[2]; [14]
  Plant response rating, Corn: 20
[2]; [15]
  Plant response rating, Corn: 30
[3]; [16]
  Wheat plant response rating: 15
[3]; [17]
  Wheat plant response rating: 85
[3]; 13 to 15 days
  Plant response rating, Wheat: 90
[3]; [18]
  Wheat plant response rating: 90
[4]; [16]
  Lambsquarters plant response rating: 85
[4]; [17]
  Lambsquarters plant response rating: 98
[4]; 13 to 15 days
  Plant response rating, Lambsquarters: 98
[4]; [18]
  Lambsquarters plant response rating: 100
[5]; [19]
  Crabgrass, Large plant response rating: 100
[5]; [20]
  Crabgrass, Large plant response rating: 100
[6]
  Plant response rating (scale of 0 to 100 where 0 is no effect and 100 is complete control), Foxtail, Giant: 5
  Foxtail, Giant plant response rating: 5
[6]; [14]
  Plant response rating, Foxtail, Giant: 65
[6]; [15]
  Plant response rating, Foxtail, Giant: 10
[7]
  Plant response rating (scale of 0 to 100 where 0 is no effect and 100 is complete control), Lambsquarters: 65
  Lambsquarters plant response rating: 55
[7]; [14]
  Plant response rating, Lambsquarters: 85
[7]; [15]
  Plant response rating, Lambsquarters: 75
[8]
  Plant response rating (scale of 0 to 100 where 0 is no effect and 100 is complete control), Barnyardgrass: 5
  Barnyardgrass plant response rating: 10
[8]; [14]
  Plant response rating, Barnyardgrass: 15
[8]; [15]
  Plant response rating, Barnyardgrass: 10
[9]; [16]
  Velvetleaf plant response rating: 10
[9]; [17]
  Velvetleaf plant response rating: 60
[9]; 13 to 15 days
  Plant response rating, Velvetleaf: 90
[9]; [18]
  Velvetleaf plant response rating: 100
[10]
  Plant response rating (scale of 0 to 100 where 0 is no effect and 100 is complete control), Chickweed: 50
  Chickweed plant response rating: 70
[10]; [14]
  Plant response rating, Chickweed: 80
[10]; [15]
  Plant response rating, Chickweed: 70
[11]
  Plant response rating, Barnyardgrass: 45
[12]
  Plant response rating (scale of 0 to 100 where 0 is no effect and 100 is complete control), Kochia: 50
  Kochia plant response rating: 70
[12]; [14]
  Plant response rating, Kochia: 90
[12]; [15]
  Plant response rating, Kochia: 85
[13]
  Plant response rating (scale of 0 to 100 where 0 is no effect and 100 is complete control), Morningglory: 65
  Morningglory plant response rating: 85
[13]; [14]
  Plant response rating, Morningglory: 80
[13]; [15]
  Plant response rating, Morningglory: 70
